Columns and labels:
[1] = tested on: human corneal (HCE) cells; assay: Cell viability (XTT assay) after hyperosmolar stress, HCE cells; assay type: cell-based; conditions: at 0.005% and 0.001% (w/v), 4 h and 8 h post-stress; FIG. 1
Experimental: A study was carried out to determine the osmoprotective capacity of sodium lipoate (A) during hyperosmolar stress on human conjunctival (WKD) and corneal (HCE) cells. In a second phase, tests were carried out to compare the effect of lipoic acid, glycerin (B), and taurine (C), individually and when the molecules were combined, on HCE cells under hyperosmolar stress conditions. The osmoprotective activity of A, then A with B and C, was evaluated by measuring cell viability in particular. To that end, cells were preincubated for 17 h with the test substance(s). Next, the medium was removed and the cells were subjected to hyperosmolar stress by addition of sodium chloride (100 mM NaCl) to the culture medium (M199 for the WKD cells and KSFM for the HCE cells). Cell-growth control cells were contacted with isotonic medium. Cell viability was analyzed pre-osmotic stress (0 h) in order to measure the effect of the molecules remaining in contact with the cells during the 17 h of incubation, then at 4 h, 8 h and 24 h post-induction of osmotic stress. The cell viability measurement was carried out via an XTT assay. Various concentrations of A were tested for the “molecule alone” tests: 0.0005%, 0.001%, 0.005%, 0.01% and 0.05% w/v. […] To ensure the validity and the significance of the data, the results obtained were analyzed statistically. […]

corneal cells = assay: Antioxidant effect on corneal cells; assay type: cell-based

Question: `O=C(O)CCCCC1CCSS1` (centres unmarked) [Sodium Lipoate, 5-(1,2-dithiolan-3-yl)pentanoic acid] was tested. Which “Osmoprotective activity against osmotic stress” value [1] did it give?
Answer: Its value is “high osmoprotective activity”.

Question: What about the Antioxidant effect (corneal cells) of the same compound?
Answer: The Antioxidant effect was “rather weak”.
